Measured values: PubChem BioAssay (NCI)
Where “and” joins values, the source holds several entries; their conditions need not be identical. Identical values can stand only once.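 Cultured in 96-well plates, cells were exposed to test compound for 48 hours across five concentrations. The concentration for 50% growth inhibition is given as GI50. The concentration for full growth arrest is given as TGI.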

Experiments:
Assay in all cases: NCI anticancer screen, dose series, 48 h
[1] = test system: HOP-18 NSCLC
[2] = test system: MCF7 breast
[3] = test system: UO-31 renal
[4] = test system: HS 578T breast
[5] = test system: HOP-92 NSCLC
[6] = test system: CCRF-CEM leukemia
[7] = test system: LOX IMVI melanoma
[8] = test system: SK-MEL-2 melanoma
[9] = test system: TK-10 renal
[10] = test system: COLO 205 colon
[11] = test system: SF-539 CNS
[12] = test system: UACC-62 melanoma
[13] = test system: MDA-MB-231 breast
[14] = test system: NCI-H460 lung
[15] = test system: OVCAR-8 ovarian
[16] = test system: RXF-631 renal
[17] = test system: NCI-H522 lung
[18] = test system: KM12 colon
[19] = test system: SR leukemia
[20] = test system: OVCAR-4 ovarian
[21] = test system: HCT-116 colon
[22] = test system: HCT-15 colon
[23] = test system: OVCAR-3 ovarian
[24] = test system: SK-MEL-5 melanoma
[25] = test system: IGROV1 ovarian
[26] = test system: KM20L2 colon
[27] = test system: SNB-75 CNS
[28] = test system: HT29 colon
[29] = test system: HL-60(TB) leukemia
[30] = test system: SNB-19 CNS
[31] = test system: EKVX NSCLC
[32] = test system: K-562 leukemia
[33] = test system: A498 renal
[34] = test system: M14 melanoma
[35] = test system: 786-0 renal
[36] = test system: SNB-78 CNS
[37] = test system: NCI-H226 lung
[38] = test system: SK-OV-3 ovarian
[39] = test system: OVCAR-5 ovarian
[40] = test system: SF-295 CNS
[41] = test system: UACC-257 melanoma
[42] = test system: ACHN renal
[43] = test system: HCC-2998 colon
[44] = test system: NCI/ADR-RES ovarian
[45] = test system: HOP-62 NSCLC
[46] = test system: SF-268 CNS
[47] = test system: MALME-3M melanoma
[48] = test system: XF 498 CNS
[49] = test system: SW-620 colon
[50] = test system: T-47D breast
[51] = test system: RPMI-8226 leukemia
[52] = test system: A549 NSCLC
[53] = test system: SK-MEL-28 melanoma
[54] = test system: U251 CNS
[55] = test system: PC-3 prostate
[56] = test system: SN12C renal
[57] = test system: CAKI-1 renal
[58] = test system: RXF 393 renal
[59] = test system: LXFL 529 NSCLC
[60] = test system: BT-549 breast
[61] = test system: NCI-H23 lung
[62] = test system: DLD-1 colon
[63] = test system: MOLT-4 leukemia

SMILES: COc1ccc(/C=C\c2cc(OC)c(OC)c(OC)c2)cc1OC
- TGI [1]: 40.4 µM
- TGI [2]: > 100 µM
- GI50 [3]: 0.805 µM
- TGI [3]: 40.4 µM and 50.3 µM
- TGI [4]: 68 µM
- GI50 [5]: 0.0473 µM
- TGI [5]: 40.4 µM and 8.55 µM
- GI50 [6]: 0.0791 µM
- GI50 [7]: 0.0829 µM
- TGI [7]: 40.4 µM and 17.7 µM
- GI50 [8]: 0.121 µM
- TGI [8]: 40.4 µM and > 100 µM
- GI50 [9]: 23.5 µM
- TGI [9]: 40.4 µM and > 100 µM
- GI50 [10]: 0.11 µM
- TGI [10]: 0.171 µM and 0.662 µM
- GI50 [11]: 0.0605 µM
- TGI [11]: 0.294 µM and 0.283 µM
- GI50 [12]: 0.036 µM
- TGI [12]: 40.4 µM and > 100 µM
- TGI [13]: > 100 µM
- GI50 [14]: 0.181 µM
- TGI [14]: 40.4 µM and 16.7 µM
- GI50 [15]: 0.275 µM
- TGI [16]: 40.4 µM
- GI50 [17]: 0.154 µM
- GI50 [18]: 0.0513 µM
- GI50 [19]: 0.0204 µM
- TGI [19]: 0.277 µM and 0.0612 µM
- GI50 [20]: 11.6 µM
- TGI [20]: 40.4 µM and > 100 µM
- GI50 [21]: 0.0482 µM
- TGI [21]: 40.4 µM and 24.4 µM
- GI50 [22]: 0.0595 µM
- TGI [22]: 40.4 µM and > 100 µM
- GI50 [23]: 0.0543 µM
- TGI [23]: 0.256 µM and 0.801 µM
- GI50 [24]: 0.0514 µM
- TGI [24]: 40.4 µM and 16.8 µM
- GI50 [25]: 0.0537 µM
- TGI [25]: 40.4 µM and 21.5 µM
- TGI [26]: 0.141 µM
- TGI [27]: 40.4 µM
- GI50 [28]: 0.043 µM
- TGI [28]: 31.4 µM
- GI50 [29]: 0.0231 µM
- TGI [29]: 0.332 µM and 0.0582 µM
- GI50 [30]: 0.32 µM
- TGI [30]: 40.4 µM and 83.6 µM
- GI50 [31]: 0.333 µM
- TGI [31]: 40.4 µM and > 100 µM
- GI50 [32]: 0.0329 µM
- TGI [32]: 40.4 µM and 15.7 µM
- TGI [33]: 40.4 µM
- GI50 [34]: 0.0603 µM
- TGI [34]: 40.4 µM and 18.1 µM
- GI50 [35]: 0.616 µM
- TGI [35]: 40.4 µM and > 100 µM
- TGI [36]: 40.4 µM
- GI50 [37]: 0.297 µM
- GI50 [38]: 0.187 µM
- TGI [38]: > 100 µM
- GI50 [39]: 0.324 µM
- TGI [39]: 40.4 µM and > 100 µM
- GI50 [40]: 0.0672 µM
- TGI [40]: 40.4 µM and > 100 µM
- GI50 [41]: 6.09 µM
- TGI [41]: 40.4 µM and > 100 µM
- GI50 [42]: 0.763 µM
- TGI [42]: 40.4 µM and 85 µM
- TGI [43]: 0.579 µM and 0.372 µM
- TGI [44]: > 100 µM
- GI50 [45]: 0.58 µM
- TGI [45]: 40.4 µM and > 100 µM
- GI50 [46]: 0.214 µM
- TGI [46]: 40.4 µM and > 100 µM
- TGI [47]: 91.6 µM
- TGI [48]: 0.401 µM
- GI50 [49]: 0.0472 µM
- TGI [49]: 40.4 µM and > 100 µM
- TGI [50]: > 100 µM
- GI50 [51]: 0.224 µM
- TGI [51]: 12.4 µM and 15.8 µM
- GI50 [52]: 0.211 µM
- TGI [52]: 40.4 µM and > 100 µM
- TGI [53]: > 100 µM
- GI50 [54]: 0.0975 µM
- TGI [55]: > 100 µM
- GI50 [56]: 0.94 µM
- TGI [57]: 40.4 µM
- TGI [58]: > 100 µM
- TGI [59]: 3.14 µM
- TGI [60]: > 100 µM
- GI50 [61]: 0.447 µM
- TGI [61]: 40.4 µM and > 100 µM
- TGI [62]: 40.4 µM
- TGI [63]: 28 µM and 14.6 µM
